From patent publication US20240190880A1 (THE REGENTS OF THE UNIVERSITY OF MICHIGAN, priority 2021, published 2024)

Each compound was assayed against T1, ER (Homo sapiens, UniProt P03372) (assay: ER degradation activity, in-cell western blot analysis in T47D cells). Conditions: 16 hours, Table A does not say which cell line (T47D or MCF7), read-out: Potency (DC50).
T1 construct: host or cells: T47D and MCF7 human breast cancer cells
T1 sequence (P03372 1-595): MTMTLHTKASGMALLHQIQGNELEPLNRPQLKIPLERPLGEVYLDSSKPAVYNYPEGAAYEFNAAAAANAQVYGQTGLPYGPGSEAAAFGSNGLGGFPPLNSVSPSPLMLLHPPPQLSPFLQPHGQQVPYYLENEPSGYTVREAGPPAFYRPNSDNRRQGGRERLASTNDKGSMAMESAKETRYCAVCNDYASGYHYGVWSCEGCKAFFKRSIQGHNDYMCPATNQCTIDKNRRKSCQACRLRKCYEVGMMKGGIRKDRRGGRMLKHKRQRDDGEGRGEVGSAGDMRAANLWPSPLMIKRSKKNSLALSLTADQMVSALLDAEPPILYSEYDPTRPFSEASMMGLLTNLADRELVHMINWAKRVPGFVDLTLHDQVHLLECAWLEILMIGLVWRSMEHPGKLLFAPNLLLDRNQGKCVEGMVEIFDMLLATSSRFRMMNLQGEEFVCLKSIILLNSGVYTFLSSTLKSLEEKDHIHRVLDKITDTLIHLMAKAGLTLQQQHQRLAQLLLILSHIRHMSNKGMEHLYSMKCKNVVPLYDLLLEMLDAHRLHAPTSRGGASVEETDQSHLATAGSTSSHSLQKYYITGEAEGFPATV
Format: cell-based
Method in brief: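 T47D cells cultured in DMEM with 10% FBS, treated with compounds (final 0.5% DMSO) for 16 h. ER level measured by in-cell western with anti-rabbit-680/anti-mouse-800 near-infrared detection. Relative ER percentage calculated against untreated and DMSO-treated wells set as 100%.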

Row | SMILES | DC50
1 | C[C@@H]1Cc2c([nH]c3ccccc23)[C@@H](c2c(F)cc(N3CC(CC(=O)N4Cc5cc6c(cc5C4)C(=O)N(C4CCC(=O)NC4=O)C6)C3)cc2F)N1CC(F)F (stereo partly drawn) [E 102, 3-(6-(2-(1-(4-((1R,3R)-2-(2,2-difluoroethyl)-3-methyl-2,3,4,9-tetrahydro-1H-pyrido[3,4-b]indol-1-yl)-3,5-difluorophenyl)azetidin-3-yl)acetyl)-1-oxo-3,5,6,7-tetrahydropyrrolo[3,4-f]isoindol-2(1H)-yl)piperidine-2,6-dione] | > 100 nM
2 | C[C@@H]1Cc2c([nH]c3ccccc23)[C@@H](c2c(F)cc(N3CC(CC(=O)N4CC(N5Cc6cc7c(cc6C5)C(=O)N(C5CCC(=O)NC5=O)C7)C4)C3)cc2F)N1CC(F)F (stereo partly drawn) [E 103, 3-(6-(1-(2-(1-(4-((1R,3R)-2-(2,2-difluoroethyl)-3-methyl-2,3,4,9-tetrahydro-1H-pyrido[3,4-b]indol-1-yl)-3,5-difluorophenyl)azetidin-3-yl)acetyl)azetidin-3-yl)-1-oxo-3,5,6,7-tetrahydropyrrolo[3,4-f]isoindol-2(1H)-yl)piperidine-2,6-dione] | 10 to 100 nM
3 | C[C@@H]1Cc2c([nH]c3ccccc23)[C@@H](c2c(F)cc(N3CCC(CC(=O)N4Cc5cc6c(cc5C4)C(=O)N(C4CCC(=O)NC4=O)C6)CC3)cc2F)N1CC(F)F (stereo partly drawn) [E 104, 3-(6-(2-(1-(4-((1R,3R)-2-(2,2-difluoroethyl)-3-methyl-2,3,4,9-tetrahydro-1H-pyrido[3,4-b]indol-1-yl)-3,5-difluorophenyl)piperidin-4-yl)acetyl)-1-oxo-3,5,6,7-tetrahydropyrrolo[3,4-f]isoindol-2(1H)-yl)piperidine-2,6-dione] | > 100 nM
4 | C[C@@H]1Cc2c([nH]c3ccccc23)[C@@H](c2c(F)cc(N3CC4(CCCN(CC(=O)N5Cc6cc7c(cc6C5)C(=O)N(C5CCC(=O)NC5=O)C7=O)C4)C3)cc2F)N1CC(F)F (stereo partly drawn) [E 105, 6-(2-(2-(4-((1R,3R)-2-(2,2-difluoroethyl)-3-methyl-2,3,4,9-tetrahydro-1H-pyrido[3,4-b]indol-1-yl)-3,5-difluorophenyl)-2,6-diazaspiro[3.5]nonan-6-yl)acetyl)-2-(2,6-dioxopiperidin-3-yl)-6,7-dihydropyrrolo[3,4-f]isoindole-1,3(2H,5H)-dione] | > 100 nM
5 | C[C@@H]1Cc2c([nH]c3ccccc23)[C@@H](c2c(F)cc(N3CC4(CCCN(CC(=O)N5Cc6cc7c(cc6C5)C(=O)N(C5CCC(=O)NC5=O)C7)C4)C3)cc2F)N1CC(F)F (stereo partly drawn) [E 106, 3-(6-(2-(2-(4-((1R,3R)-2-(2,2-difluoroethyl)-3-methyl-2,3,4,9-tetrahydro-1H-pyrido[3,4-b]indol-1-yl)-3,5-difluorophenyl)-2,6-diazaspiro[3.5]nonan-6-yl)acetyl)-1-oxo-3,5,6,7-tetrahydropyrrolo[3,4-f]isoindol-2(1H)-yl)piperidine-2,6-dione] | 10 to 100 nM
6 | C[C@@H]1Cc2c([nH]c3ccccc23)[C@@H](c2c(F)cc(N3CCC(N4CCC(C(=O)N5Cc6cc7c(cc6C5)C(=O)N(C5CCC(=O)NC5=O)C7=O)CC4)C3)cc2F)N1CC(F)F (stereo partly drawn) [E 110, 6-(1-(1-(4-((1R,3R)-2-(2,2-difluoroethyl)-3-methyl-2,3,4,9-tetrahydro-1H-pyrido[3,4-b]indol-1-yl)-3,5-difluorophenyl)pyrrolidin-3-yl)piperidine-4-carbonyl)-2-(2,6-dioxopiperidin-3-yl)-6,7-dihydropyrrolo[3,4-f]isoindole-1,3(2H,5H)-dione] | > 100 nM
7 | C[C@@H]1Cc2c([nH]c3ccccc23)[C@@H](c2c(F)cc(N3CCC(C(=O)N4CCC(CN5Cc6cc7c(cc6C5)C(=O)N(C5CCC(=O)NC5=O)C7=O)CC4)CC3)cc2F)N1CC(F)F (stereo partly drawn) [E 113, 6-((1-(1-(4-((1R,3R)-2-(2,2-difluoroethyl)-3-methyl-2,3,4,9-tetrahydro-1H-pyrido[3,4-b]indol-1-yl)-3,5-difluorophenyl)piperidine-4-carbonyl)piperidin-4-yl)methyl)-2-(2,6-dioxopiperidin-3-yl)-6,7-dihydropyrrolo[3,4-f]isoindole-1,3(2H,5H)-dione] | 10 to 100 nM
8 | C[C@@H]1Cc2c([nH]c3ccccc23)[C@@H](c2c(F)cc(N3CC4(CC(C(=O)N5CCC(CN6Cc7cc8c(cc7C6)C(=O)N(C6CCC(=O)NC6=O)C8=O)CC5)C4)C3)cc2F)N1CC(F)F (stereo partly drawn) [E 115, 6-((1-(2-(4-((1R,3R)-2-(2,2-difluoroethyl)-3-methyl-2,3,4,9-tetrahydro-1H-pyrido[3,4-b]indol-1-yl)-3,5-difluorophenyl)-2-azaspiro[3.3]heptane-6-carbonyl)piperidin-4-yl)methyl)-2-(2,6-dioxopiperidin-3-yl)-6,7-dihydropyrrolo[3,4-f]isoindole-1,3(2H,5H)-dione] | < 10 nM
9 | C[C@@H]1Cc2c([nH]c3ccccc23)[C@@H](c2c(F)cc(N3CC4(CC(C(=O)N5CCC(N6Cc7cc8c(cc7C6)C(=O)N(C6CCC(=O)NC6=O)C8=O)CC5)C4)C3)cc2F)N1CC(F)F (stereo partly drawn) [E 116, 6-(1-(2-(4-((1R,3R)-2-(2,2-difluoroethyl)-3-methyl-2,3,4,9-tetrahydro-1H-pyrido[3,4-b]indol-1-yl)-3,5-difluorophenyl)-2-azaspiro[3.3]heptane-6-carbonyl)piperidin-4-yl)-2-(2,6-dioxopiperidin-3-yl)-6,7-dihydropyrrolo[3,4-f]isoindole-1,3(2H,5H)-dione] | < 10 nM

More lines, now with the values ahead:

Row | DC50 | SMILES
10 | < 10 nM | C[C@@H]1Cc2c([nH]c3ccccc23)[C@@H](c2c(F)cc(N3CCC4(CC3)CC(C(=O)N3CCC(N5Cc6cc7c(cc6C5)C(=O)N(C5CCC(=O)NC5=O)C7)CC3)C4)cc2F)N1CC(F)F (stereo partly drawn) [E 101, 3-(6-(1-(7-(4-((1R,3R)-2-(2,2-difluoroethyl)-3-methyl-2,3,4,9-tetrahydro-1H-pyrido[3,4-b]indol-1-yl)-3,5-difluorophenyl)-7-azaspiro[3.5]nonane-2-carbonyl)piperidin-4-yl)-1-oxo-3,5,6,7-tetrahydropyrrolo[3,4-f]isoindol-2(1H)-yl)piperidine-2,6-dione]
11 | < 10 nM | C[C@@H]1Cc2c([nH]c3ccccc23)[C@@H](c2c(F)cc(N3CCC4(CCN(CC(=O)N5Cc6cc7c(cc6C5)C(=O)N(C5CCC(=O)NC5=O)C7=O)CC4)C3)cc2F)N1CC(F)F (stereo partly drawn) [E 107, 6-(2-(2-(4-((1R,3R)-2-(2,2-difluoroethyl)-3-methyl-2,3,4,9-tetrahydro-1H-pyrido[3,4-b]indol-1-yl)-3,5-difluorophenyl)-2,8-diazaspiro[4.5]decan-8-yl)acetyl)-2-(2,6-dioxopiperidin-3-yl)-6,7-dihydropyrrolo[3,4-f]isoindole-1,3(2H,5H)-dione]
12 | < 10 nM | C[C@@H]1Cc2c([nH]c3ccccc23)[C@@H](c2c(F)cc(N3CCC4(CCN(CC(=O)N5Cc6cc7c(cc6C5)C(=O)N(C5CCC(=O)NC5=O)C7)CC4)C3)cc2F)N1CC(F)F (stereo partly drawn) [E 108, 3-(6-(2-(2-(4-((1R,3R)-2-(2,2-difluoroethyl)-3-methyl-2,3,4,9-tetrahydro-1H-pyrido[3,4-b]indol-1-yl)-3,5-difluorophenyl)-2,8-diazaspiro[4.5]decan-8-yl)acetyl)-1-oxo-3,5,6,7-tetrahydropyrrolo[3,4-f]isoindol-2(1H)-yl)piperidine-2,6-dione]
13 | < 10 nM | C[C@@H]1Cc2c([nH]c3ccccc23)[C@@H](c2c(F)cc(N3CCC(N4CCN(C(=O)CN5Cc6cc7c(cc6C5)C(=O)N(C5CCC(=O)NC5=O)C7=O)CC4)CC3)cc2F)N1CC(F)F (stereo partly shown) [E 109]
14 | < 10 nM | C[C@@H]1Cc2c([nH]c3ccccc23)[C@@H](c2c(F)cc(N3CCC4(CC3)CN(C(=O)CN3Cc5cc6c(cc5C3)C(=O)N(C3CCC(=O)NC3=O)C6=O)C4)cc2F)N1CC(F)F (stereo partly drawn) [E 111, 6-(2-(7-(4-((1R,3R)-2-(2,2-difluoroethyl)-3-methyl-2,3,4,9-tetrahydro-1H-pyrido[3,4-b]indol-1-yl)-3,5-difluorophenyl)-2,7-diazaspiro[3.5]nonan-2-yl)-2-oxoethyl)-2-(2,6-dioxopiperidin-3-yl)-6,7-dihydropyrrolo[3,4-f]isoindole-1,3(2H,5H)-dione]
15 | < 10 nM | C[C@@H]1Cc2c([nH]c3ccccc23)[C@@H](c2c(F)cc(N3CCC4(CCN(C(=O)CN5Cc6cc7c(cc6C5)C(=O)N(C5CCC(=O)NC5=O)C7=O)CC4)CC3)cc2F)N1CC(F)F (stereo partly drawn) [E 112, 6-(2-(9-(4-((1R,3R)-2-(2,2-difluoroethyl)-3-methyl-2,3,4,9-tetrahydro-1H-pyrido[3,4-b]indol-1-yl)-3,5-difluorophenyl)-3,9-diazaspiro[5.5]undecan-3-yl)-2-oxoethyl)-2-(2,6-dioxopiperidin-3-yl)-6,7-dihydropyrrolo[3,4-f]isoindole-1,3(2H,5H)-dione]
16 | < 10 nM | C[C@@H]1Cc2c([nH]c3ccccc23)[C@@H](c2c(F)cc(N3CCC(C(=O)N4CCC(N5Cc6cc7c(cc6C5)C(=O)N(C5CCC(=O)NC5=O)C7=O)CC4)CC3)cc2F)N1CC(F)F (stereo partly drawn) [E 114, 6-(1-(1-(4-((1R,3R)-2-(2,2-difluoroethyl)-3-methyl-2,3,4,9-tetrahydro-1H-pyrido[3,4-b]indol-1-yl)-3,5-difluorophenyl)piperidine-4-carbonyl)piperidin-4-yl)-2-(2,6-dioxopiperidin-3-yl)-6,7-dihydropyrrolo[3,4-f]isoindole-1,3(2H,5H)-dione]
